# Data from patent US11666590B2, “Pharmaceutical composition, methods for treating and uses thereof” (Boehringer Ingelheim International GmbH, priority 2013, dated 2023).
# What was measured:
# [1] = Phase III trial of empagliflozin as add-on to existing therapy for 52 weeks in patients with T2DM and renal impairment: eGFR (MDRD) over time; assay type: in vivo, human; conditions: for End-of treatment eGFR Mean / End-of treatment eGFR Mean change from baseline / eGFR at week 52 (in words): week 52
# Description: (§1) For the purpose of the present invention, the estimated glomerular filtration rate (eGFR) is derived from the serum creatinine (SCr) value based on the MDRD formula below: eGFR (mL/min/1.73m2)=175×[SCr (μmol/L)/88.4]-1.154×[age]-0.203×[0.742 if patient is female]×[1.212 if patient is of African origin]
# A Phase III trial investigated the efficacy and safety of empagliflozin (EMPA) as add-on to existing therapy for 52 weeks in patients with T2DM and RI. Patients with mild RI (eGFR [MDRD equation]≥60 to<90 mL/min/1.73 m^2) received EMPA 10 or 25 mg qd or placebo (PBO). Patients with moderate RI (eGFR≥30 to<60 mL/min/1.73 m^2) received EMPA 25 mg qd or PBO. Patients with severe RI (eGFR[…] to<30 mL/min/1.73 m^2) received EMPA 25 mg qd or PBO.
# [2] = 52 week renal impairment study: urine albumin/creatinine ratio (UACR) by baseline UACR category; assay type: in vivo, human; conditions: for Frequency of patients, last value on-treatment Macroalbuminuria, % / Frequency of patients, last value on-treatment Microalbuminuria, % / Frequency of patients, last value on-treatment Normal, % / Urine albumin-to-creatinine ratio, change from baseline, Mean: week 52; for mean urine albumin/creatinine ratio values (in words): patients with microalbuminuria at baseline
# Experimental: In a dedicated 52 week renal impairment study, patients were categorised based on their urine albumin/creatinine ratio (UACR) values at baseline, and 3 categories of patients were distinguished: patients with normal urine albumin/creatinine ratio values (<30 mg/g), patients with microalbuminuria (30 to<300 mg/g) and patients with macroalbuminurea (≥300 mg/g).
# Categories for urine albumin-to-creatinine ratio: normal:<30 mg/g, microalbuminuria 30 to<300 mg/g, macroalbuminuria:≥300 mg/g
# [3] = Phase III trial of empagliflozin once daily over 12 weeks in hypertensive patients with T2DM: eGFR (MDRD) over time; assay type: in vivo, human
# Experimental: as §1
# A Phase III trial investigated the efficacy and safety of empagliflozin (EMPA) administered orally, once daily over 12 weeks in hypertensive patients with T2DM (EMPA 10 or 25 mg, placebo (PBO)). Patients with a systolic blood pressure (SBP) of 130 to 159 mmHg and a diastolic blood pressure (DSP) of 80 to 99 mmHg were included in the trial.
# [4] = Phase IIb trial of empagliflozin once daily over 78 weeks in patients with T2DM receiving basal insulin: eGFR (MDRD) over time; assay type: in vivo, human
# Experimental: as §1
# A Phase IIb trial investigated the efficacy and safety of empagliflozin (EMPA 10 or 25 mg, placebo (PBO)) administered orally, once daily over 78 weeks in patients with T2DM receiving treatment with basal insulin (glargine, detemir, or NPH insulin only).
# [5] = metformin on its own, in the diabetic; cited from earlier work
# [6] = mild renal impairment, Empa 10 mg qd, 3-week follow up visit
# [7] = mild renal impairment, Empa 10 mg qd
# [8] = mild renal impairment, Empa 25 mg qd, 3-week follow up visit
# [9] = mild renal impairment, Empa 25 mg qd
# [10] = moderate renal impairment, Empa 25 mg qd, 3-week follow-up visit
# [11] = moderate renal impairment, Empa 25 mg qd
# [12] = severe renal impairment, Empa 25 mg qd, 3-week follow-up visit
# [13] = severe renal impairment, Empa 25 mg qd
# [14] = Empa 10 mg, baseline Macroalbuminuria
# [15] = Empa 10 mg, baseline Microalbuminuria
# [16] = Empa 10 mg, baseline UACR Normal
# [17] = Empa 25 mg, baseline Macroalbuminuria
# [18] = Empa 25 mg, baseline Microalbuminuria
# [19] = Empa 25 mg, baseline UACR Normal
# [20] = Empa 10 mg once daily, 2-week follow up visit
# [21] = Empa 25 mg once daily, 2-week follow up visit
# [22] = T2DM on basal insulin, Empa 10 mg once daily, 4-week follow up visit
# [23] = T2DM on basal insulin, Empa 10 mg once daily
# [24] = T2DM on basal insulin, Empa 25 mg once daily, 4-week follow up visit
# [25] = T2DM on basal insulin, Empa 25 mg once daily
compound,measurement,setting,value
"OC[C@H]1O[C@@H](c2ccc(Cl)c(Cc3ccc(O[C@H]4CCOC4)cc3)c2)[C@H](O)[C@@H](O)[C@@H]1O [Empa, 1-chloro-4-(β-D-glucopyranos-1-yl)-244-((S)-tetrahydrofuran-3-yloxy)-benzylFbenzene]",Follow-up eGFR Mean,[1]; [6],69.84 mL/min/1.73 m^2
same,Follow-up eGFR Mean change from baseline,[1]; [6],2.06 mL/min/1.73 m^2
same,Baseline eGFR Mean,[1]; [7],68.42 mL/min/1.73 m^2
same,End-of treatment eGFR Mean,[1]; [7],68.07 mL/min/1.73 m^2
same,End-of treatment eGFR Mean change from baseline,[1]; [7],−0.76 mL/min/1.73 m^2
same,Follow-up eGFR Mean,[1]; [8],73.38 mL/min/1.73 m^2
same,Follow-up eGFR Mean change from baseline,[1]; [8],1.28 mL/min/1.73 m^2
same,Baseline eGFR Mean,[1]; [9],72.01 mL/min/1.73 m^2
same,End-of treatment eGFR Mean,[1]; [9],66.25 mL/min/1.73 m^2
same,End-of treatment eGFR Mean change from baseline,[1]; [9],−5.67 mL/min/1.73 m^2
same,mean eGFR at follow up (in words),"[1]; mild renal impairment, empagliflozin 10 and 25 mg, 3-week follow up visit",increased to a value slightly above baseline
same,eGFR at week 52 (in words),"[1]; mild renal impairment, empagliflozin 10 and 25 mg",small decrease in eGFR
same,Follow-up eGFR Mean,[1]; [10],45.39 mL/min/1.73 m^2
same,Follow-up eGFR Mean change from baseline,[1]; [10],1.48 mL/min/1.73 m^2
same,Baseline eGFR Mean,[1]; [11],43.84 mL/min/1.73 m^2
same,End-of treatment eGFR Mean,[1]; [11],40.58 mL/min/1.73 m^2
same,End-of treatment eGFR Mean change from baseline,[1]; [11],−3.55 mL/min/1.73 m^2
same,mean eGFR at follow-up (in words),"[1]; moderate renal impairment, empagliflozin 25 mg, 3-week follow-up visit",increased to a value slightly above baseline
same,eGFR at week 52 (in words),"[1]; moderate renal impairment, empagliflozin 25 mg",small decrease in eGFR
same,Follow-up eGFR Mean,[1]; [12],23.63 mL/min/1.73 m^2
same,Follow-up eGFR Mean change from baseline,[1]; [12],−0.59 mL/min/1.73 m^2
same,Baseline eGFR Mean,[1]; [13],24.22 mL/min/1.73 m^2
same,End-of treatment eGFR Mean,[1]; [13],20.23 mL/min/1.73 m^2
same,End-of treatment eGFR Mean change from baseline,[1]; [13],−3.98 mL/min/1.73 m^2
same,mean eGFR at follow-up (in words),"[1]; severe renal impairment, empagliflozin 25 mg, 3-week follow-up visit",increased to a value slightly below baseline
same,eGFR at week 52 (in words),"[1]; severe renal impairment, empagliflozin 25 mg",small decrease in eGFR
same,"Frequency of patients, last value on-treatment Macroalbuminuria, %",[2]; [14],(33.3) %
same,"Frequency of patients, last value on-treatment Microalbuminuria, %",[2]; [14],(55.6) %
same,"Frequency of patients, last value on-treatment Normal, %",[2]; [14],(11.1) %
same,"Frequency of patients, last value on-treatment Macroalbuminuria, %",[2]; [15],(11.1) %
same,"Frequency of patients, last value on-treatment Microalbuminuria, %",[2]; [15],(61.1) %
same,"Frequency of patients, last value on-treatment Normal, %",[2]; [15],(27.8) %
same,"Frequency of patients, last value on-treatment Microalbuminuria, %",[2]; [16],(10.6) %
same,"Frequency of patients, last value on-treatment Normal, %",[2]; [16],(89.4) %
same,"Frequency of patients, last value on-treatment Macroalbuminuria, %",[2]; [17],(67.1) %
same,"Frequency of patients, last value on-treatment Microalbuminuria, %",[2]; [17],(30.1) %
same,"Frequency of patients, last value on-treatment Normal, %",[2]; [17],(2.7) %
same,"Frequency of patients, last value on-treatment Macroalbuminuria, %",[2]; [18],(3.8) %
same,"Frequency of patients, last value on-treatment Microalbuminuria, %",[2]; [18],(72.2) %
same,"Frequency of patients, last value on-treatment Normal, %",[2]; [18],(24.1) %
same,"Frequency of patients, last value on-treatment Microalbuminuria, %",[2]; [19],(10.6) %
same,"Frequency of patients, last value on-treatment Normal, %",[2]; [19],(89.4) %
same,"Urine albumin-to-creatinine ratio, change from baseline, Mean","[2]; Empagliflozin 10 mg, patients Normal (<30 mg/g) at baseline",4.0 mg/g
same,"Urine albumin-to-creatinine ratio, change from baseline, Mean","[2]; Empagliflozin 10 mg, patients with Macroalbuminuria at baseline",-716.3 mg/g
same,"Urine albumin-to-creatinine ratio, change from baseline, Mean","[2]; Empagliflozin 10 mg, patients with Microalbuminuria at baseline",7.4 mg/g
same,"Urine albumin-to-creatinine ratio, change from baseline, Mean","[2]; Empagliflozin 25 mg, patients Normal (<30 mg/g) at baseline",6.0 mg/g
same,"Urine albumin-to-creatinine ratio, change from baseline, Mean","[2]; Empagliflozin 25 mg, patients with Macroalbuminuria at baseline",-799.9 mg/g
same,"Urine albumin-to-creatinine ratio, change from baseline, Mean","[2]; Empagliflozin 25 mg, patients with Microalbuminuria at baseline",-39.4 mg/g
same,"Shifts between UACR categories from macro- or microalbuminuria towards normal and from macro- to microalbuminuria, versus placebo (in words)","[2]; baseline to end of treatment, empagliflozin treatment groups",higher frequency
same,mean urine albumin/creatinine ratio (in words),"[2]; patients with macroalbuminuria at baseline, empagliflozin groups",decrease in mean urine albumin/creatinine ratio
same,mean urine albumin/creatinine ratio values (in words),[2]; empagliflozin 10 mg,remained nearly unchanged
same,mean urine albumin/creatinine ratio values (in words),[2]; empagliflozin 25 mg,decreased
same,Follow-up eGFR Mean,[3]; [20],86.25 mL/min/1.73 m^2
same,Follow-up eGFR Mean change from baseline,[3]; [20],3.06 mL/min/1.73 m^2
same,Follow-up eGFR Mean change from last value on treatment,[3]; [20],3.32 mL/min/1.73 m^2
same,Baseline eGFR Mean,[3]; Empa 10 mg once daily,83.01 mL/min/1.73 m^2
same,Last value on treatment eGFR Mean,"[3]; Empa 10 mg once daily, week 12",82.70 mL/min/1.73 m^2
same,Last value on treatment eGFR Mean change from baseline,"[3]; Empa 10 mg once daily, week 12",−0.20 mL/min/1.73 m^2
same,Follow-up eGFR Mean,[3]; [21],86.60 mL/min/1.73 m^2
same,Follow-up eGFR Mean change from baseline,[3]; [21],2.75 mL/min/1.73 m^2
same,Follow-up eGFR Mean change from last value on treatment,[3]; [21],5.54 mL/min/1.73 m^2
same,Baseline eGFR Mean,[3]; Empa 25 mg once daily,83.97 mL/min/1.73 m^2
same,Last value on treatment eGFR Mean,"[3]; Empa 25 mg once daily, week 12",81.24 mL/min/1.73 m^2
same,Last value on treatment eGFR Mean change from baseline,"[3]; Empa 25 mg once daily, week 12",−2.60 mL/min/1.73 m^2
same,mean eGFR at follow up (in words),"[3]; empagliflozin 10 and 25 mg, 2-week follow up visit",increased to a value slightly above baseline
same,eGFR at week 12 (in words),"[3]; empagliflozin 10 and 25 mg, week 12",small decrease in eGFR
same,eGFR at follow-up Mean,[4]; [22],83.74
same,eGFR at follow-up Mean change from baseline,[4]; [22],−1.88
same,Baseline eGFR Mean,[4]; [23],85.01
same,Week 18 eGFR Mean,[4]; [23],80.37
same,Week 18 eGFR Mean change from baseline,[4]; [23],−4.98
same,Week 54 eGFR Mean,[4]; [23],82.55
same,Week 54 eGFR Mean change from baseline,[4]; [23],−5.68
same,Week 78 eGFR Mean,[4]; [23],81.86
same,Week 78 eGFR Mean change from baseline,[4]; [23],−5.52
same,eGFR at follow-up Mean,[4]; [24],81.35
same,eGFR at follow-up Mean change from baseline,[4]; [24],−0.79
same,Baseline eGFR Mean,[4]; [25],82.88
same,Week 18 eGFR Mean,[4]; [25],79.11
same,Week 18 eGFR Mean change from baseline,[4]; [25],−3.48
same,Week 54 eGFR Mean,[4]; [25],77.12
same,Week 54 eGFR Mean change from baseline,[4]; [25],−4.76
same,Week 78 eGFR Mean,[4]; [25],77.21
same,Week 78 eGFR Mean change from baseline,[4]; [25],−5.64
same,mean eGFR at follow up (in words),"[4]; T2DM on basal insulin, empagliflozin 10 and 25 mg, 4-week follow up visit",increased to a value slightly below baseline
same,eGFR on treatment (in words),"[4]; empagliflozin 10 and 25 mg, 78 weeks",small decrease in eGFR
CN(C)C(=N)N=C(N)N [metformin],average improvement in the HbA1c value,[5],1.0-1.5%
